Data on 2 substances can be found in PMC12055641, “The Study of Antistaphylococcal Potential of Omiganan and Retro-Omiganan Under Flow Conditions” (Probiotics and Antimicrobial Proteins, 2024).

The subject of test [1] is S. aureus ATCC 33591 (MRSA). The test is described as follows: microbe, parasite or virus in culture. Put shortly: (§1)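 MICs by CLSI broth microdilution in Mueller–Hinton broth (Ca²⁺ 50 mg/L added for daptomycin), read as lowest concentration inhibiting visible growth. MBEC on 24 h biofilms (0.5 × 10^7 CFU/mL, 37 °C) and MBIC with compound present during 24 h growth, both read by resazurin; triplicates.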

Test [2] relates to S. aureus ATCC 25923. The experiment in a line: microbe, parasite or virus in culture. The procedure, abridged:
as §1

The subject of test [3] is S. aureus ATCC 33591 (MRSA). The experiment in a line: Membrane depolarization DiSC3(5). The class given is cell-based, Staphylococcus aureus. The following applies: 2 × MIC, DiSC3(5) fluorescence. Here is the method: (§2) Membrane depolarization activities of omiganan and retro-omiganan were evaluated using DiSC3(5) (3,3′-dipropylthiadicarbocyanine iodide; Thermo Fischer Scientific, Invitrogen™). The S. aureus ATCC 25923 and S. aureus ATCC 33591 strains were grown at 37 °C up to a mid-log phase (approx. 4 h) in the Mueller–Hinton broth. The cultures were centrifuged (3500 rpm, 7 min) and washed with a 20 mM glucose solution in HEPES buffer (5 mM, pH 7.2). The cells were resuspended in a 5 mM HEPES buffer supplemented with 20 mM glucose and 100 mM KCl (pH 7.2) to an OD 0.05 at 600 nm. The final concentration of the dye was 0.4 μM. The fluorescence was monitored at 20 °C (λex 620 nm and λem 678 nm) with Fluoroskan Ascent FL (Thermo Fisher Scientific) fluorometer. […] A HEPES solution with glucose was used as a negative control. The measurements were conducted twice to ensure the reproducibility.

Test [4] relates to S. aureus ATCC 25923. The experiment in a line: Membrane depolarization DiSC3(5). The following applies: 2 × MIC, DiSC3(5) fluorescence. The class given is cell-based, Staphylococcus aureus. Here is the method: as §2
[5] abbreviates: S. aureus ATCC 33591 (MRSA) biofilm treated under flow with Omiganan (half MBEC) for 24 h.
Setting [6] is: S. aureus ATCC 33591 (MRSA) biofilm treated under flow with Omiganan (half MBEC) for 48 h.
Where [7] appears, read: S. aureus ATCC 33591 (MRSA) biofilm treated under flow with Omiganan (half MBEC) for 72 h.
Setting [8] is: S. aureus ATCC 33591 (MRSA) biofilm treated under flow with Retro-Omiganan (half MBEC) for 24 h.
[9] abbreviates: S. aureus ATCC 33591 (MRSA) biofilm treated under flow with Retro-Omiganan (half MBEC) for 48 h.
The mark [10] stands for this setting: S. aureus ATCC 33591 (MRSA) biofilm treated under flow with Retro-Omiganan (half MBEC) for 72 h.
Setting [11] is: S. aureus ATCC 33591 (MRSA), time 0 h (baseline, before peptide exposure).

No end group written: not given here.

For the substance ILRWPWWPWRRK-NH2 [Omiganan], the MIC in test [1] (setting [5]), in test [1] (setting [6]), in test [1] (setting [7]), in test [1] (setting [8]), in test [1] (setting [9]) and in test [1] (setting [10]) was 8.0 µg/mL in each case. The MIC in test [1] (setting [11]) came to 16.0 µg/mL; in test [2] (ATCC 25923, 0 h), 16.0 µg/mL; in test [2] (ATCC 25923, 24 h) it was 8.0 µg/mL; in test [2] (ATCC 25923, 48 h), 8.0 µg/mL; in test [2] (ATCC 25923, 72 h) it was 8.0 µg/mL. For the same substance, the membrane depolarization entry in test [3] and in test [4] was “cause depolarization of S. aureus membranes immediately after the addition” throughout.

Turning to KRRWPWWPWRLI-NH2 [Retro-Omiganan], the MIC in test [1] (setting [5]), in test [1] (setting [6]), in test [1] (setting [7]), in test [1] (setting [8]), in test [1] (setting [9]) and in test [1] (setting [10]) was 8.0 µg/mL in each case. Further, the MIC stood at 16.0 µg/mL in test [1] (setting [11]); 8.0 µg/mL in test [2] (S. aureus 25923, time 0 h (baseline, before peptide exposure)); 8.0 µg/mL in test [2] (S. aureus 25923 biofilm treated under flow with Omiganan (half MBEC) for 24 h); 8.0 µg/mL in test [2] (S. aureus 25923 biofilm treated under flow with Omiganan (half MBEC) for 48 h); 8.0 µg/mL in test [2] (S. aureus 25923 biofilm treated under flow with Omiganan (half MBEC) for 72 h); 8.0 µg/mL in test [2] (S. aureus 25923 biofilm treated under flow with Retro-Omiganan (half MBEC) for 24 h). For the same substance, the MIC in test [2] (S. aureus 25923 biofilm treated under flow with Retro-Omiganan (half MBEC) for 48 h) and in test [2] (S. aureus 25923 biofilm treated under flow with Retro-Omiganan (half MBEC) for 72 h) was 8.0 µg/mL in each case. Further, the membrane depolarization entry in test [3] and in test [4] was “cause depolarization of S. aureus membranes immediately after the addition” each time.
